Molecular target: Gamma-aminobutyric acid receptor subunit alpha-1/beta-2/gamma-2 (Rattus norvegicus, UniProt P62813+P63138+P18508)
Assay: Binding affinity for recombinant rat GABA-A receptor alpha-1-beta-2-gamma-2 subunits expressed in HEK293 cells

Sequence of Gamma-aminobutyric acid receptor subunit alpha-1/beta-2/gamma-2 (P62813 whole entry): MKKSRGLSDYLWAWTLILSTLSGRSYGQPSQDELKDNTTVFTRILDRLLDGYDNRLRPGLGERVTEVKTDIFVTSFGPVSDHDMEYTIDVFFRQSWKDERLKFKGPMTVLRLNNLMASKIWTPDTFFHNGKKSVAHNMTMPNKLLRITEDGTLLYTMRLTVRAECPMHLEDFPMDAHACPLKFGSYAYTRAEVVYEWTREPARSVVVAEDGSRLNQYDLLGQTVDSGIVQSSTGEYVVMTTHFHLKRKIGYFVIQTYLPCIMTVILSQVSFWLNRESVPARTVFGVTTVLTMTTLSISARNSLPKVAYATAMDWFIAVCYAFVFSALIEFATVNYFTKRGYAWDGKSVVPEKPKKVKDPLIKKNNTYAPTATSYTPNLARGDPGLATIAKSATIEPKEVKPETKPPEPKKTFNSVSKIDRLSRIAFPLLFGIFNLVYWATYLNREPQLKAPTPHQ
Sequence of Gamma-aminobutyric acid receptor subunit alpha-1/beta-2/gamma-2 (P63138 whole entry): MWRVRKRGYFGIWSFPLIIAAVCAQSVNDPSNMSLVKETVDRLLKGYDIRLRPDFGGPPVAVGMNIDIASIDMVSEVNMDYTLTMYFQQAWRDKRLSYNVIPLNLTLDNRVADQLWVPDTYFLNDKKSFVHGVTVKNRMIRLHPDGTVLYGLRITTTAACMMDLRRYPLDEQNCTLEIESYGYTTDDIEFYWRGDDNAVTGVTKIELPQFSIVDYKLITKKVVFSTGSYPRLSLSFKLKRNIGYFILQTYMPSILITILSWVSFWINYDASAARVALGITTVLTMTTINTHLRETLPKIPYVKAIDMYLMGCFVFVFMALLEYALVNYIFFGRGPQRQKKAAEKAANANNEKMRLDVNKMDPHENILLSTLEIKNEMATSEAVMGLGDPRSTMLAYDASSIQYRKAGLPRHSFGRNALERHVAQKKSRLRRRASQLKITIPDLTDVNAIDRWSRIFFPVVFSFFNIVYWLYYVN
Sequence of Gamma-aminobutyric acid receptor subunit alpha-1/beta-2/gamma-2 (P18508 whole entry): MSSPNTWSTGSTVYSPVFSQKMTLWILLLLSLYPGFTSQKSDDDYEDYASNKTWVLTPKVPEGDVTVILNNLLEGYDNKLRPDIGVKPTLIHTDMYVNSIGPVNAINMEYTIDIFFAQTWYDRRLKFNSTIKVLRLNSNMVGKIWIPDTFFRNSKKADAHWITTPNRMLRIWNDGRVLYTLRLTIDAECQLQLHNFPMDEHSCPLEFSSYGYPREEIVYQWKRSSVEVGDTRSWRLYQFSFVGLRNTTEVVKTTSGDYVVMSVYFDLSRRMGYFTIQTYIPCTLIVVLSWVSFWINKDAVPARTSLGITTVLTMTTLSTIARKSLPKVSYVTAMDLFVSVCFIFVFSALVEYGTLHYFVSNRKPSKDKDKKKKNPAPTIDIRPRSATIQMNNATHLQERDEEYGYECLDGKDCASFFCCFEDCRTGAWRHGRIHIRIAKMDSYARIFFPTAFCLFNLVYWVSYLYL

Ki | Structure (SMILES)
10 nM | O=c1c(-c2ccsc2)cnc2c(-c3cccc(C(F)(F)F)c3)c[nH]n12 [6-Thiophen-3-yl-3-(3-trifluoromethyl-phenyl)-4H-pyrazolo[1,5-a]pyrimidin-7-one]
10 nM | O=c1c(-c2ccsc2)cnc2c(-c3cccc(Br)c3)c[nH]n12 [3-(3-Bromo-phenyl)-6-thiophen-3-yl-4H-pyrazolo[1,5-a]pyrimidin-7-one]

From BindingDB's records for doi:10.1021/jm020999w (University of Firenze, 2003)
